In patent US9695155B2, “Herbicidal substituted pyrimidinyloxy benzene compounds” (E. I. DU PONT DE NEMOURS AND COMPANY, priority 2013, dated 2017):

Key:
Experiment in all cases: Test C preemergence
barnyardgrass = type: in vivo, Echinochloa crus-galli; conditions: for Barnyardgrass plant response rating: preemergence; for Plant response rating, Barnyardgrass: Preemergence, scale 0 to 100, 0 no effect, 100 complete control
Summary of the method: (§1)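 Seeds are planted in blended loam soil and sand and treated preemergence, while seedlings in a peat moss/vermiculite medium receive postemergence sprays at 2 to 18 cm height. All plants stay in the greenhouse for 13 to 15 days before visual comparison with controls on a 0–100 scale.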

ragweed = type: in vivo, Ambrosia elatior; conditions: for Ragweed plant response rating: preemergence; for Plant response rating, Ragweed: Preemergence, scale 0 to 100, 0 no effect, 100 complete control
Summary of the method: as §1

wheat, winter = type: in vivo, Triticum aestivum; conditions: for Wheat plant response rating: preemergence; for Plant response rating, Wheat: Preemergence, scale 0 to 100, 0 no effect, 100 complete control
Summary of the method: as §1

oilseed rape = type: in vivo, Brassica napus; conditions: for Oilseed Rape plant response rating: preemergence; for Plant response rating, Oilseed Rape: Preemergence, scale 0 to 100, 0 no effect, 100 complete control
Summary of the method: as §1

pigweed = type: in vivo, Amaranthus retroflexus; conditions: for Pigweed plant response rating: preemergence; for Plant response rating, Pigweed: Preemergence, scale 0 to 100, 0 no effect, 100 complete control
Summary of the method: as §1

johnsongrass = type: in vivo, Sorghum halepense; conditions: for Johnsongrass plant response rating: preemergence; for Plant response rating, Johnsongrass: Preemergence, scale 0 to 100, 0 no effect, 100 complete control
Summary of the method: as §1

soybean = type: in vivo, Glycine max; conditions: for Soybean plant response rating: preemergence; for Plant response rating, Soybean: Preemergence, scale 0 to 100, 0 no effect, 100 complete control
Summary of the method: as §1

giant foxtail = type: in vivo, Setaria faberii; conditions: for Foxtail, Giant plant response rating: preemergence; for Plant response rating, Foxtail, Giant: Preemergence, scale 0 to 100, 0 no effect, 100 complete control
Summary of the method: as §1

lambsquarters = type: in vivo, Chenopodium album; conditions: for Lambsquarters plant response rating: preemergence; for Plant response rating, Lambsquarters: Preemergence, scale 0 to 100, 0 no effect, 100 complete control
Summary of the method: as §1

waterhemp = type: in vivo, Amaranthus rudis; conditions: for Waterhemp plant response rating: preemergence; for Plant response rating, Waterhemp: Preemergence, scale 0 to 100, 0 no effect, 100 complete control
Summary of the method: as §1

blackgrass = type: in vivo, Alopecurus myosuroides; conditions: for Blackgrass plant response rating: preemergence; for Plant response rating, Blackgrass: Preemergence, scale 0 to 100, 0 no effect, 100 complete control
Summary of the method: as §1

yellow nutsedge = type: in vivo, Cyperus esculentus; conditions: for Nutsedge, Yellow plant response rating: preemergence; for Plant response rating, Nutsedge, Yellow: Preemergence, scale 0 to 100, 0 no effect, 100 complete control
Summary of the method: as §1

velvetleaf = type: in vivo, Abutilon theophrasti; conditions: for Velvetleaf plant response rating: preemergence; for Plant response rating, Velvetleaf: Preemergence, scale 0 to 100, 0 no effect, 100 complete control
Summary of the method: as §1

galium = type: in vivo, Galium aparine; conditions: for Galium plant response rating: preemergence; for Plant response rating, Galium: Preemergence, scale 0 to 100, 0 no effect, 100 complete control
Summary of the method: as §1

[1] = 125 g ai/ha, scale 0 (no effect) to 100 (complete control)
[2] = 250 g ai/ha, scale 0 (no effect) to 100 (complete control)
[3] = 62 g ai/ha, scale 0 (no effect) to 100 (complete control)
[4] = 16 g ai/ha, scale 0 to 100 (0 no effect, 100 complete control)
[5] = 31 g ai/ha, scale 0 to 100 (0 no effect, 100 complete control)

Compound: N#Cc1cnn(-c2c(C#N)cccc2Oc2ncc(Cl)cn2)c1 [Compound 200]
- Barnyardgrass plant response rating (barnyardgrass; [1]): 100
- Barnyardgrass plant response rating (barnyardgrass; [2]): 100
- Plant response rating, Barnyardgrass (barnyardgrass; 62 g ai/ha): 100
- Ragweed plant response rating (ragweed; [1]): 100
- Ragweed plant response rating (ragweed; [2]): 98
- Plant response rating, Ragweed (ragweed; 62 g ai/ha): 100
- Wheat plant response rating (wheat, winter; [1]): 90
- Wheat plant response rating (wheat, winter; [2]): 95
- Plant response rating, Wheat (wheat, winter; 62 g ai/ha): 65
- Oilseed Rape plant response rating (oilseed rape; [1]): 98
- Oilseed Rape plant response rating (oilseed rape; [2]): 98
- Plant response rating, Oilseed Rape (oilseed rape; 62 g ai/ha): 98
- Pigweed plant response rating (pigweed; [1]): 100
- Pigweed plant response rating (pigweed; [2]): 100
- Plant response rating, Pigweed (pigweed; 62 g ai/ha): 100
- Johnsongrass plant response rating (johnsongrass; [1]): 98
- Johnsongrass plant response rating (johnsongrass; [2]): 98
- Plant response rating, Johnsongrass (johnsongrass; 62 g ai/ha): 98
- Soybean plant response rating (soybean; [1]): 95
- Soybean plant response rating (soybean; [2]): 100
- Plant response rating, Soybean (soybean; 62 g ai/ha): 90
- Foxtail, Giant plant response rating (giant foxtail; [1]): 100
- Foxtail, Giant plant response rating (giant foxtail; [2]): 100
- Plant response rating, Foxtail, Giant (giant foxtail; 62 g ai/ha): 100
- Lambsquarters plant response rating (lambsquarters; [1]): 98
- Lambsquarters plant response rating (lambsquarters; [2]): 98
- Plant response rating, Lambsquarters (lambsquarters; 62 g ai/ha): 98
- Waterhemp plant response rating (waterhemp; [1]): 100
- Waterhemp plant response rating (waterhemp; [2]): 100
- Plant response rating, Waterhemp (waterhemp; 62 g ai/ha): 100
- Blackgrass plant response rating (blackgrass; [1]): 98
- Blackgrass plant response rating (blackgrass; [2]): 98
- Plant response rating, Blackgrass (blackgrass; 62 g ai/ha): 95
- Nutsedge, Yellow plant response rating (yellow nutsedge; [1]): 90
- Nutsedge, Yellow plant response rating (yellow nutsedge; [2]): 95
- Plant response rating, Nutsedge, Yellow (yellow nutsedge; 62 g ai/ha): 40
- Velvetleaf plant response rating (velvetleaf; [1]): 100
- Velvetleaf plant response rating (velvetleaf; [2]): 100
- Plant response rating, Velvetleaf (velvetleaf; 62 g ai/ha): 100
- Galium plant response rating (galium; [1]): 100
- Galium plant response rating (galium; [2]): 100
- Plant response rating, Galium (galium; 62 g ai/ha): 100

Compound: N#Cc1cccc(Oc2ncc(Cl)cn2)c1-n1cc(Cl)cn1 [Compound 72]
- Barnyardgrass plant response rating (barnyardgrass; [3]): 100
- Barnyardgrass plant response rating (barnyardgrass; [1]): 100
- Barnyardgrass plant response rating (barnyardgrass; [2]): 100
- Plant response rating, Barnyardgrass (barnyardgrass; 31 g ai/ha): 75
- Ragweed plant response rating (ragweed; [3]): 75
- Ragweed plant response rating (ragweed; [1]): 85
- Ragweed plant response rating (ragweed; [2]): 95
- Plant response rating, Ragweed (ragweed; 31 g ai/ha): 55
- Wheat plant response rating (wheat, winter; [3]): 0
- Wheat plant response rating (wheat, winter; [1]): 30
- Wheat plant response rating (wheat, winter; [2]): 35
- Plant response rating, Wheat (wheat, winter; 31 g ai/ha): 0
- Oilseed Rape plant response rating (oilseed rape; [3]): 100
- Oilseed Rape plant response rating (oilseed rape; [1]): 100
- Oilseed Rape plant response rating (oilseed rape; [2]): 100
- Plant response rating, Oilseed Rape (oilseed rape; 31 g ai/ha): 65
- Pigweed plant response rating (pigweed; [3]): 100
- Pigweed plant response rating (pigweed; [1]): 100
- Pigweed plant response rating (pigweed; [2]): 100
- Plant response rating, Pigweed (pigweed; 31 g ai/ha): 100
- Johnsongrass plant response rating (johnsongrass; [3]): 55
- Johnsongrass plant response rating (johnsongrass; [1]): 100
- Johnsongrass plant response rating (johnsongrass; [2]): 100
- Plant response rating, Johnsongrass (johnsongrass; 31 g ai/ha): 35
- Soybean plant response rating (soybean; [3]): 55
- Soybean plant response rating (soybean; [1]): 80
- Soybean plant response rating (soybean; [2]): 85
- Plant response rating, Soybean (soybean; 31 g ai/ha): 40
- Foxtail, Giant plant response rating (giant foxtail; [3]): 100
- Foxtail, Giant plant response rating (giant foxtail; [1]): 100
- Foxtail, Giant plant response rating (giant foxtail; [2]): 100
- Plant response rating, Foxtail, Giant (giant foxtail; 31 g ai/ha): 100
- Lambsquarters plant response rating (lambsquarters; [3]): 100
- Lambsquarters plant response rating (lambsquarters; [1]): 100
- Lambsquarters plant response rating (lambsquarters; [2]): 100
- Plant response rating, Lambsquarters (lambsquarters; 31 g ai/ha): 98
- Waterhemp plant response rating (waterhemp; [3]): 100
- Waterhemp plant response rating (waterhemp; [1]): 100
- Waterhemp plant response rating (waterhemp; [2]): 100
- Plant response rating, Waterhemp (waterhemp; 31 g ai/ha): 100
- Blackgrass plant response rating (blackgrass; [3]): 90
- Blackgrass plant response rating (blackgrass; [1]): 90
- Blackgrass plant response rating (blackgrass; [2]): 95
- Plant response rating, Blackgrass (blackgrass; 31 g ai/ha): 50
- Nutsedge, Yellow plant response rating (yellow nutsedge; [3]): 0
- Nutsedge, Yellow plant response rating (yellow nutsedge; [1]): 10
- Nutsedge, Yellow plant response rating (yellow nutsedge; [2]): 80
- Plant response rating, Nutsedge, Yellow (yellow nutsedge; 31 g ai/ha): 0
- Velvetleaf plant response rating (velvetleaf; [3]): 95
- Velvetleaf plant response rating (velvetleaf; [1]): 100
- Velvetleaf plant response rating (velvetleaf; [2]): 100
- Plant response rating, Velvetleaf (velvetleaf; 31 g ai/ha): 60
- Galium plant response rating (galium; [3]): 90
- Galium plant response rating (galium; [1]): 90
- Galium plant response rating (galium; [2]): 95
- Plant response rating, Galium (galium; 31 g ai/ha): 80

Compound: NC(=S)c1cccc(Oc2ncc(Cl)cn2)c1-n1cc(Cl)cn1 [Compound 292]
- Barnyardgrass plant response rating (barnyardgrass; [4]): 0
- Barnyardgrass plant response rating (barnyardgrass; [5]): 15
- Barnyardgrass plant response rating (barnyardgrass; [1]): 100
- Plant response rating, Barnyardgrass (barnyardgrass; 62 g ai/ha): 85
- Ragweed plant response rating (ragweed; [4]): 25
- Ragweed plant response rating (ragweed; [5]): 35
- Ragweed plant response rating (ragweed; [1]): 70
- Plant response rating, Ragweed (ragweed; 62 g ai/ha): 35
- Wheat plant response rating (wheat, winter; [4]): 0
- Wheat plant response rating (wheat, winter; [5]): 0
- Wheat plant response rating (wheat, winter; [1]): 15
- Plant response rating, Wheat (wheat, winter; 62 g ai/ha): 10
- Oilseed Rape plant response rating (oilseed rape; [4]): 70
- Oilseed Rape plant response rating (oilseed rape; [5]): 80
- Oilseed Rape plant response rating (oilseed rape; [1]): 98
- Plant response rating, Oilseed Rape (oilseed rape; 62 g ai/ha): 98
- Pigweed plant response rating (pigweed; [4]): 100
- Pigweed plant response rating (pigweed; [5]): 100
- Pigweed plant response rating (pigweed; [1]): 100
- Plant response rating, Pigweed (pigweed; 62 g ai/ha): 100
- Johnsongrass plant response rating (johnsongrass; [4]): 0
- Johnsongrass plant response rating (johnsongrass; [5]): 5
- Johnsongrass plant response rating (johnsongrass; [1]): 85
- Plant response rating, Johnsongrass (johnsongrass; 62 g ai/ha): 40
- Soybean plant response rating (soybean; [4]): 5
- Soybean plant response rating (soybean; [5]): 40
- Soybean plant response rating (soybean; [1]): 90
- Plant response rating, Soybean (soybean; 62 g ai/ha): 85
- Foxtail, Giant plant response rating (giant foxtail; [4]): 45
- Foxtail, Giant plant response rating (giant foxtail; [5]): 100
- Foxtail, Giant plant response rating (giant foxtail; [1]): 100
- Plant response rating, Foxtail, Giant (giant foxtail; 62 g ai/ha): 100
- Lambsquarters plant response rating (lambsquarters; [4]): 35
- Lambsquarters plant response rating (lambsquarters; [5]): 80
- Lambsquarters plant response rating (lambsquarters; [1]): 100
- Plant response rating, Lambsquarters (lambsquarters; 62 g ai/ha): 98
- Waterhemp plant response rating (waterhemp; [4]): 100
- Waterhemp plant response rating (waterhemp; [5]): 100
- Waterhemp plant response rating (waterhemp; [1]): 100
- Plant response rating, Waterhemp (waterhemp; 62 g ai/ha): 100
- Blackgrass plant response rating (blackgrass; [4]): 0
- Blackgrass plant response rating (blackgrass; [5]): 70
- Blackgrass plant response rating (blackgrass; [1]): 90
- Plant response rating, Blackgrass (blackgrass; 62 g ai/ha): 90
- Nutsedge, Yellow plant response rating (yellow nutsedge; [4]): 0
- Nutsedge, Yellow plant response rating (yellow nutsedge; [5]): 0
- Nutsedge, Yellow plant response rating (yellow nutsedge; [1]): 35
- Plant response rating, Nutsedge, Yellow (yellow nutsedge; 62 g ai/ha): 0
- Velvetleaf plant response rating (velvetleaf; [4]): 15
- Velvetleaf plant response rating (velvetleaf; [5]): 35
- Velvetleaf plant response rating (velvetleaf; [1]): 100
- Plant response rating, Velvetleaf (velvetleaf; 62 g ai/ha): 98
- Galium plant response rating (galium; [4]): 80
- Galium plant response rating (galium; [5]): 98
- Galium plant response rating (galium; [1]): 100
- Plant response rating, Galium (galium; 62 g ai/ha): 100
